Experiments:
Format in all cases: binding
[1] = biological target: T1, BphP1-FP (Rhodopseudomonas palustris, UniProt A0A161I5N6, I252C, form not given); assay: zinc-induced fluorescence on SDS-PAGE; absorption and fluorescence spectroscopy; settings: covalent, to Cys256 (GAF) and partly also Cys15 (PAS); co-expressed heme oxygenase supplies BV; 20 mM Tris/HCl pH 8.0, 1 mM TCEP
T1 construct: engineered near-infrared fluorescent protein from PAS-GAF (CBD) of RpBphP1, lacks PHY and effector domains; N-terminal polyhistidine tag (pBAD/His-B); E. coli LMG194 with heme oxygenase; monomer, about 35 kDa

[2] = biological target: T2, BphP1-FP (Rhodopseudomonas palustris, UniProt A0A161I5N6, C19S, form not given); assay: absorption and fluorescence spectroscopy of purified holoprotein; settings: non-covalent (no reactive Cys); otherwise same
T2 construct: engineered near-infrared fluorescent protein from PAS-GAF (CBD) of RpBphP1, lacks PHY and effector domains; N-terminal polyhistidine tag (pBAD/His-B); E. coli LMG194 with heme oxygenase; monomer, about 35 kDa

[3] = biological target: T3, BphP1-FP (Rhodopseudomonas palustris, UniProt A0A161I5N6, C19S/I252C, form not given); assay: zinc-induced fluorescence on SDS-PAGE; absorption and fluorescence spectroscopy; settings: covalent, to Cys256 (GAF) only; otherwise same
T3 construct: engineered near-infrared fluorescent protein from PAS-GAF (CBD) of RpBphP1, lacks PHY and effector domains; N-terminal polyhistidine tag (pBAD/His-B); E. coli LMG194 with heme oxygenase; monomer, about 35 kDa
T3 sequence (A0A161I5N6 1-314 C19S/I252C limits assumed): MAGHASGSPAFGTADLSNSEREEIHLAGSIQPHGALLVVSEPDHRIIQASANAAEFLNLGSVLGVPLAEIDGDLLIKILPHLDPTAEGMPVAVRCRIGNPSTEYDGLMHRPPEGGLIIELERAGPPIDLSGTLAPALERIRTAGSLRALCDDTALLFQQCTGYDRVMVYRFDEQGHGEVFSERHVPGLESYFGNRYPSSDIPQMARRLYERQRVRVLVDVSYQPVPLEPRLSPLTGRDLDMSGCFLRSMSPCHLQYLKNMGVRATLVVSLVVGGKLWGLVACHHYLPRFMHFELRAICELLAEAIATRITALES

T2 sequence (A0A161I5N6 1-314 C19S limits assumed): as the sequence (A0A161I5N6 1-314 C19S/I252C limits assumed) above, with C252I counted along it
T1 sequence (A0A161I5N6 1-314 I252C limits assumed): as the sequence (A0A161I5N6 1-314 C19S/I252C limits assumed) above, with S19C counted along it

C=CC1=C(C)C(=Cc2[nH]c(C=C3N=C(C=C4NC(=O)C(C)=C4C=C)C(C)=C3CCC(=O)O)c(CCC(=O)O)c2C)NC1=O [BV, biliverdin]
zinc-induced fluorescence on SDS-PAGE; absorption and fluorescence spectroscopy [1]: The zinc-staining assay confirmed the covalent binding of the BV chromophore in BphP1-FP, BphP1-FP/C256I | absorption and fluorescence spectroscopy of purified holoprotein [2]: Absorption and fluorescence spectra of BphP1-FP/C15S/C256I mutant without Cys15 and Cys256 residues | zinc-induced fluorescence on SDS-PAGE; absorption and fluorescence spectroscopy [3]: there was no non-covalently bound BV in BphP1-FP/C15S

— paper PMC5454922, “Interaction of Biliverdin Chromophore with Near-Infrared Fluorescent Protein BphP1-FP Engineered from Bacterial Phytochrome” (International Journal of Molecular Sciences, 2017)
